Source: patent publication US20250108038A1 (priority 2023, published 2025)
Where “and” joins values, the source holds several entries; their conditions need not be identical. Equal values may be shown once.

Test system: Long Evans rats
Experiment: Behavioral satiety sequence (BSS)
Assay type: in vivo, Long Evans rat
Description: The Behavioural Satiety Sequence (BSS) is a technique used to evaluate physiological satiety. It is based on the expression of a sequence of behaviors including eating, grooming, locomotor activity, followed by resting, which are typically observed in rodents post-ingestion (Halford et al, 1998, Pharmacology Biochemistry and Behaviour. 61(2): 159-168). The BSS is a widely used model for determining the effects of novel pharmaceuticals on food intake and measures of satiety in rodents (Oliveira et al, 2011, Revista de Nutrição. 24(4) 619-628), and to discriminate the cause of reduced food intake following pharmacological manipulation. For example, treatments that may reduce food intake by non-specific mechanisms, such as immobility, malaise, and taste adulteration, will disrupt this sequence (Halford et al, 1998, Pharmacology Biochemistry and Behaviour. 61(2): 159-168).
Specifically, 12 male Long-Evans rats were food-deprived for 22 h with a 2 h feeding period each day. Rats were trained to consume daily food during the 2 h period over 25 days. The testing phase was initiated once the rats consistently consumed 16-18 g of food per day with ≤10% variance in amount of feed consumed. Feeding took place in designated individual boxes in a quiet room separate from the housing room. Continuous remote monitoring via video camera during feeding was used to assess the BSS. Food consumption was measured by weighing the total available food before and after the 2 h feeding window, correcting for spillage. Lorcaserin (1 mg/kg) was included as a reference control (Higgins et al, 2011, Neuropsychopharmacology. 37(5): 1177-1191). Subjects were tested using a repeated-measures, Latin square design with 2-3 days wash-out between treatment cycles.
On scheduled test days, animals were monitored remotely via video camera during the feeding access period. The occurrence of four mutually exclusive behaviors (eating/drinking, grooming, active, rest) were individually scored. Over the 2 h feeding period, behaviors were assessed every 30 seconds. Scores were compiled into 23 5 min timebins (timebin 24 was removed due to early removal of animals) and the frequency of each behavior within each timebin was calculated to determine a temporal frequency of each measure (Rodgers et al, 2010, Pharmacology Biochemistry and Behaviour. 97: 3-14). Percentage time was plotted for each behavioral sequence in each timebin to compare between treatment groups (Higgins et al, 2011, Neuropsychopharmacology. 37(5): 1177-1191).

[1] = 0.3 mg/kg, raw score per animal LT-1 to LT-12
[2] = 1 mg/kg, raw data per animal (LT-1 to LT-12)

Clc1ccc(C2(OCC3OCCO3)c3ccccc3C3=NCCN32)cc1 (stereo not drawn) [Compound I-19]
BSS scoring A (active), Time Bin 16 (75-80 TOTAL) [1]: 0 (6×) and 2 (3×) and 3 (3×)
BSS scoring A (active), Time Bin 17 (80-85 TOTAL) [1]: 0 (3×) and 2 and 1 (5×) and 3 and 5 (2×)
BSS scoring A (active), Time Bin 18 (85-90 TOTAL) [1]: 4 and 0 (5×) and 8 and 2 (2×) and 1 and 5 (2×)
BSS scoring E (eating/drinking), Time Bin 13 (60-65 TOTAL) [1]: 10 (3×) and 7 (4×) and 8 (3×) and 9 and 6
BSS scoring E (eating/drinking), Time Bin 14 (65-70 TOTAL) [1]: 9 (5×) and 6 and 10 (2×) and 7 and 8 (2×) and 2
BSS scoring E (eating/drinking), Time Bin 15 (70-75 TOTAL) [1]: 9 and 6 (4×) and 4 and 1 and 7 (3×) and 5 and 3
BSS scoring E (eating/drinking), Time Bin 16 (75-80 TOTAL) [1]: 10 (4×) and 6 (2×) and 9 and 8 and 7 (3×) and 5
BSS scoring E (eating/drinking), Time Bin 17 (80-85 TOTAL) [1]: 10 (3×) and 5 and 4 (4×) and 7 (2×) and 9 (2×)
BSS scoring E (eating/drinking), Time Bin 18 (85-90 TOTAL) [1]: 4 and 9 (3×) and 8 and 0 and 6 (2×) and 10 and 3 (2×) and 7
BSS scoring G (grooming), Time Bin 13 (60-65 TOTAL) [1]: 0 (8×) and 1 (4×)
BSS scoring G (grooming), Time Bin 14 (65-70 TOTAL) [1]: 0 (9×) and 1 (3×)
BSS scoring G (grooming), Time Bin 15 (70-75 TOTAL) [1]: 0 (7×) and 1 (5×)
BSS scoring G (grooming), Time Bin 16 (75-80 TOTAL) [1]: 0 (11×) and 1
BSS scoring G (grooming), Time Bin 17 (80-85 TOTAL) [1]: 0 (8×) and 2 (2×) and 1 (2×)
BSS scoring G (grooming), Time Bin 18 (85-90 TOTAL) [1]: 2 (2×) and 1 (8×) and 0 (2×)
BSS scoring R (resting), Time Bin 13 (60-65 TOTAL) [1]: 0 (7×) and 2 (3×) and 1 (2×)
BSS scoring R (resting), Time Bin 14 (65-70 TOTAL) [1]: 0 (7×) and 1 (4×) and 2
BSS scoring R (resting), Time Bin 15 (70-75 TOTAL) [1]: 1 (3×) and 0 (6×) and 3 and 2 (2×)
BSS scoring R (resting), Time Bin 16 (75-80 TOTAL) [1]: 0 (6×) and 2 (3×) and 1 (3×)
BSS scoring R (resting), Time Bin 17 (80-85 TOTAL) [1]: 0 (7×) and 1 (2×) and 4 and 3 and 2
BSS scoring R (resting), Time Bin 18 (85-90 TOTAL) [1]: 0 (6×) and 1 (5×) and 2
BSS scoring A (active), Time Bin 19 (90-95 TOTAL), AVG (1 mg/kg, AVG of LT-1 to LT-12): 0.14
BSS scoring A (active), Time Bin 20 (95-100 TOTAL), AVG (1 mg/kg, AVG of LT-1 to LT-12): 0.10
BSS scoring A (active), Time Bin 21 (100-105 TOTAL), AVG (1 mg/kg, AVG of LT-1 to LT-12): 0.14
BSS scoring A (active), Time Bin 22 (105-110 TOTAL), AVG (1 mg/kg, AVG of LT-1 to LT-12): 0.15
BSS scoring A (active), Time Bin 23 (110-115 TOTAL), AVG (1 mg/kg, AVG of LT-1 to LT-12): 0.18
BSS scoring A (active), Time Bin 24 (115-120 TOTAL), AVG (1 mg/kg, AVG of LT-1 to LT-12): 0.15
BSS scoring E (eating/drinking), Time Bin 19 (90-95 TOTAL), AVG (1 mg/kg, AVG of LT-1 to LT-12): 0.58
BSS scoring E (eating/drinking), Time Bin 20 (95-100 TOTAL), AVG (1 mg/kg, AVG of LT-1 to LT-12): 0.73
BSS scoring E (eating/drinking), Time Bin 21 (100-105 TOTAL), AVG (1 mg/kg, AVG of LT-1 to LT-12): 0.61
BSS scoring E (eating/drinking), Time Bin 22 (105-110 TOTAL), AVG (1 mg/kg, AVG of LT-1 to LT-12): 0.63
BSS scoring E (eating/drinking), Time Bin 23 (110-115 TOTAL), AVG (1 mg/kg, AVG of LT-1 to LT-12): 0.59
BSS scoring E (eating/drinking), Time Bin 24 (115-120 TOTAL), AVG (1 mg/kg, AVG of LT-1 to LT-12): 0.41
BSS scoring G (grooming), Time Bin 19 (90-95 TOTAL), AVG (1 mg/kg, AVG of LT-1 to LT-12): 0.02
BSS scoring G (grooming), Time Bin 20 (95-100 TOTAL), AVG (1 mg/kg, AVG of LT-1 to LT-12): 0.01
BSS scoring G (grooming), Time Bin 21 (100-105 TOTAL), AVG (1 mg/kg, AVG of LT-1 to LT-12): 0.01
BSS scoring G (grooming), Time Bin 22 (105-110 TOTAL), AVG (1 mg/kg, AVG of LT-1 to LT-12): 0.08
BSS scoring G (grooming), Time Bin 23 (110-115 TOTAL), AVG (1 mg/kg, AVG of LT-1 to LT-12): 0.06
BSS scoring G (grooming), Time Bin 24 (115-120 TOTAL), AVG (1 mg/kg, AVG of LT-1 to LT-12): 0.02
BSS scoring R (resting), Time Bin 19 (90-95 TOTAL), AVG (1 mg/kg, AVG of LT-1 to LT-12): 0.26
BSS scoring R (resting), Time Bin 20 (95-100 TOTAL), AVG (1 mg/kg, AVG of LT-1 to LT-12): 0.17
BSS scoring R (resting), Time Bin 21 (100-105 TOTAL), AVG (1 mg/kg, AVG of LT-1 to LT-12): 0.24
BSS scoring R (resting), Time Bin 22 (105-110 TOTAL), AVG (1 mg/kg, AVG of LT-1 to LT-12): 0.14
BSS scoring R (resting), Time Bin 23 (110-115 TOTAL), AVG (1 mg/kg, AVG of LT-1 to LT-12): 0.18
BSS scoring R (resting), Time Bin 24 (115-120 TOTAL), AVG (1 mg/kg, AVG of LT-1 to LT-12): 0.26
BSS scoring A (active), Time Bin 19 (90-95 TOTAL) [2]: 0 (6×) and 4 and 1 (3×) and 7 and 3
BSS scoring A (active), Time Bin 20 (95-100 TOTAL) [2]: 0 (8×) and 6 and 3 and 1 and 2
BSS scoring A (active), Time Bin 21 (100-105 TOTAL) [2]: 0 (7×) and 5 (3×) and 1 (2×)
BSS scoring A (active), Time Bin 22 (105-110 TOTAL) [2]: 1 (3×) and 3 (3×) and 0 (4×) and 4 and 2
BSS scoring A (active), Time Bin 23 (110-115 TOTAL) [2]: 8 and 0 (5×) and 4 (2×) and 2 and 1 (3×)
BSS scoring A (active), Time Bin 24 (115-120 TOTAL) [2]: 6 and 0 (6×) and 1 and 3 and 2 (2×) and 4
BSS scoring E (eating/drinking), Time Bin 19 (90-95 TOTAL) [2]: 10 (3×) and 8 (3×) and 5 and 9 and 0 (3×) and 2
BSS scoring E (eating/drinking), Time Bin 20 (95-100 TOTAL) [2]: 10 (5×) and 6 and 3 and 8 and 2 and 9 (2×) and 0
BSS scoring E (eating/drinking), Time Bin 21 (100-105 TOTAL) [2]: 10 (5×) and 2 (2×) and 5 and 3 (2×) and 8 and 0
BSS scoring E (eating/drinking), Time Bin 22 (105-110 TOTAL) [2]: 9 and 6 (4×) and 10 and 5 and 7 (2×) and 8 and 3 (2×)
BSS scoring E (eating/drinking), Time Bin 23 (110-115 TOTAL) [2]: 0 and 7 (4×) and 10 (2×) and 3 and 5 (2×) and 6 and 4
BSS scoring E (eating/drinking), Time Bin 24 (115-120 TOTAL) [2]: 0 (3×) and 2 (2×) and 10 and 5 (3×) and 3 and 9 and 8
BSS scoring G (grooming), Time Bin 19 (90-95 TOTAL) [2]: 0 (10×) and 1 (2×)
BSS scoring G (grooming), Time Bin 20 (95-100 TOTAL) [2]: 0 (11×) and 1
BSS scoring G (grooming), Time Bin 21 (100-105 TOTAL) [2]: 0 (11×) and 1
BSS scoring G (grooming), Time Bin 22 (105-110 TOTAL) [2]: 0 (7×) and 1 (2×) and 2 (2×) and 3
BSS scoring G (grooming), Time Bin 23 (110-115 TOTAL) [2]: 1 (3×) and 0 (7×) and 2 (2×)
BSS scoring G (grooming), Time Bin 24 (115-120 TOTAL) [2]: 0 (10×) and 1 (2×)
BSS scoring R (resting), Time Bin 19 (90-95 TOTAL) [2]: 0 (5×) and 2 (3×) and 1 and 9 and 8 and 7
BSS scoring R (resting), Time Bin 20 (95-100 TOTAL) [2]: 0 (6×) and 4 and 1 (2×) and 2 and 5 and 7
BSS scoring R (resting), Time Bin 21 (100-105 TOTAL) [2]: 0 (5×) and 3 (3×) and 2 (2×) and 6 and 10
BSS scoring R (resting), Time Bin 22 (105-110 TOTAL) [2]: 0 (5×) and 1 (2×) and 4 (2×) and 2 (2×) and 3
BSS scoring R (resting), Time Bin 23 (110-115 TOTAL) [2]: 1 (3×) and 3 (4×) and 0 (3×) and 2 and 4
BSS scoring R (resting), Time Bin 24 (115-120 TOTAL) [2]: 4 (2×) and 7 (2×) and 0 (4×) and 2 and 5 and 1 (2×)
BSS scoring A (active), Time Bin 19 (90-95 TOTAL), AVG (3 mg/kg, AVG of LT-1 to LT-12): 0.18
BSS scoring A (active), Time Bin 20 (95-100 TOTAL), AVG (3 mg/kg, AVG of LT-1 to LT-12): 0.19
BSS scoring A (active), Time Bin 21 (100-105 TOTAL), AVG (3 mg/kg, AVG of LT-1 to LT-12): 0.22
BSS scoring A (active), Time Bin 22 (105-110 TOTAL), AVG (3 mg/kg, AVG of LT-1 to LT-12): 0.20
BSS scoring A (active), Time Bin 23 (110-115 TOTAL), AVG (3 mg/kg, AVG of LT-1 to LT-12): 0.19
BSS scoring A (active), Time Bin 24 (115-120 TOTAL), AVG (3 mg/kg, AVG of LT-1 to LT-12): 0.27
